In patent publication US20240138411A1, “METHOD OF […] OF SUGARCANE” (CORTEVA AGRISCIENCE LLC, priority 2021, published 2024):

Tested on: sugarcane
Assay: Sugarcane flowering inhibition field trials, floral induction rated on UFSCar scale
Type: in vivo
Procedure: In order to explore the activity of florpyrauxifen as flowering inhibitor in sugarcane, field studies were carried out. Florpyrauxifen-benzyl was tested at rates from 2 to 20 grams active ingredient per hectare (g ai/ha) and compared to Ethrel® 720 (Bayer), the standard treatment. The flowering inhibition effect was assessed by checking the floral induction in sugarcane through the percentage scale recommended by UFSCar (Federal University of Sao Carlos, Sao Paulo, Brazil).
Four trials were carried out in sugarcane where florpyrauxifen-benzyl (Rinskor®), applied at a rate of 2 to 20 g ai/ha, was compared to ethephon (Ethrel® 720) applied at a rate of 475 g ai/ha. Control plots of untreated sugarcane were also evaluated. Rinskor® and Ethrel® 720 were diluted in water and a single application for each study (backpack sprayer) was performed delivering 50 L of spray solution per ha at the reproductive stage of sugarcane and at a maximum 150 days before harvest. The activity of florpyrauxifen-benzyl as a flowering inhibitor was measured via assessments (Scale of flowering inhibition—see chart 1) performed at 0, 14, 30, 45, 60, 75, 90, 120, 150 days after application, or up to harvest time. The assessments were measured in sugarcane stems, rating the flowering induction according to the UFSCar scale shown below. Significance of treatment effect was evaluated with F-approximate test (α=0.1) and least square means from different treatments were compared with Tukey's test.

COc1c(Cl)ccc(-c2nc(C(=O)OCc3ccccc3)c(Cl)c(N)c2F)c1F [Rinskor, florpyrauxifen-benzyl]
25.0%: Frequency 1/1 (0%) (Table 1, 75 DAA, 10 g ai/ha) | Frequency 1/1 (0%) (Table 1, 90 DAA, 5 g ai/ha)
32.5%: Frequency 1/1 (0%) (Table 1, 75 DAA, 15 g ai/ha)
92.5%: Frequency 2/1 (15%) (Table 1, 90 DAA, 15 g ai/ha) | Frequency 2/1 (15%) (Table 1, 120 DAA, 2 g ai/ha) | Frequency 2/1 (15%) (Table 1, 120 DAA, 10 g ai/ha) | Frequency 2/1 (15%) (Table 1, 120 DAA, 15 g ai/ha)
12.8%: % Referring to Scale (Table 1, 120 DAA, 5 g ai/ha)
67.5%: Frequency 2/1 (15%) (Table 1, 75 DAA, 15 g ai/ha)
80.0%: Frequency 2/1 (15%) (Table 1, 90 DAA, 20 g ai/ha)
10.1%: % Referring to Scale (Table 1, 75 DAA, 15 g ai/ha)
75.0%: Frequency 2/1 (15%) (Table 1, 75 DAA, 10 g ai/ha) | Frequency 2/1 (15%) (Table 1, 90 DAA, 5 g ai/ha)
11.3%: % Referring to Scale (Table 1, 75 DAA, 10 g ai/ha) | % Referring to Scale (Table 1, 90 DAA, 5 g ai/ha)
90.0%: Frequency 2/1 (15%) (Table 1, 90 DAA, 10 g ai/ha)
10.5%: % Referring to Scale (Table 1, 75 DAA, 20 g ai/ha)
15.0%: Frequency 1/1 (0%) (Table 1, 90 DAA, 20 g ai/ha) | Frequency 1/1 (0%) (Table 1, 120 DAA, 5 g ai/ha)
87.5%: Frequency 2/1 (15%) (Table 1, 75 DAA, 5 g ai/ha) | Frequency 2/1 (15%) (Table 1, 90 DAA, 2 g ai/ha)
13.5%: % Referring to Scale (Table 1, 75 DAA, 2 g ai/ha) | % Referring to Scale (Table 1, 90 DAA, 20 g ai/ha)
14.3%: % Referring to Scale (Table 1, 90 DAA, 10 g ai/ha)
70.0%: Frequency 2/1 (15%) (Table 1, 75 DAA, 20 g ai/ha)
30.0%: Frequency 1/1 (0%) (Table 1, 75 DAA, 20 g ai/ha)
13.1%: % Referring to Scale (Table 1, 90 DAA, 2 g ai/ha)
13.9%: % Referring to Scale (Table 1, 90 DAA, 15 g ai/ha) | % Referring to Scale (Table 1, 120 DAA, 2 g ai/ha) | % Referring to Scale (Table 1, 120 DAA, 10 g ai/ha) | % Referring to Scale (Table 1, 120 DAA, 15 g ai/ha)
85.0%: Frequency 2/1 (15%) (Table 1, 75 DAA, 2 g ai/ha) | Frequency 2/1 (15%) (Table 1, 120 DAA, 5 g ai/ha)
14.6%: % Referring to Scale (Table 1, 75 DAA, 5 g ai/ha)
7.5%: Frequency 1/1 (0%) (Table 1, 75 DAA, 5 g ai/ha) | Frequency 1/1 (0%) (Table 1, 90 DAA, 10 g ai/ha) | Frequency 1/1 (0%) (Table 1, 90 DAA, 15 g ai/ha) | Frequency 1/1 (0%) (Table 1, 120 DAA, 2 g ai/ha) | Frequency 1/1 (0%) (Table 1, 120 DAA, 10 g ai/ha) | Frequency 1/1 (0%) (Table 1, 120 DAA, 15 g ai/ha)
2.5%: Frequency 3/1 (30%) (Table 1, 75 DAA, 2 g ai/ha) | Frequency 3/1 (30%) (Table 1, 90 DAA, 10 g ai/ha)
5.0%: Frequency 3/1 (30%) (Table 1, 75 DAA, 5 g ai/ha) | Frequency 3/1 (30%) (Table 1, 90 DAA, 20 g ai/ha)
12.5%: Frequency 1/1 (0%) (Table 1, 75 DAA, 2 g ai/ha) | Frequency 1/1 (0%) (Table 1, 90 DAA, 2 g ai/ha)
0.0%: Frequency 4/1 (50%) (Table 1, 75 DAA, 2 g ai/ha) | Frequency 4/2 (80%) (Table 1, 75 DAA, 2 g ai/ha) | Frequency 4/3 (90%) (Table 1, 75 DAA, 2 g ai/ha) | Frequency 4/4 (100%) (Table 1, 75 DAA, 2 g ai/ha) | Frequency 4/1 (50%) (Table 1, 75 DAA, 5 g ai/ha) | Frequency 4/2 (80%) (Table 1, 75 DAA, 5 g ai/ha) | Frequency 4/3 (90%) (Table 1, 75 DAA, 5 g ai/ha) | Frequency 4/4 (100%) (Table 1, 75 DAA, 5 g ai/ha) | Frequency 3/1 (30%) (Table 1, 75 DAA, 10 g ai/ha) | Frequency 4/1 (50%) (Table 1, 75 DAA, 10 g ai/ha) | Frequency 4/2 (80%) (Table 1, 75 DAA, 10 g ai/ha) | Frequency 4/3 (90%) (Table 1, 75 DAA, 10 g ai/ha) | Frequency 4/4 (100%) (Table 1, 75 DAA, 10 g ai/ha) | Frequency 3/1 (30%) (Table 1, 75 DAA, 15 g ai/ha) | Frequency 4/1 (50%) (Table 1, 75 DAA, 15 g ai/ha) | Frequency 4/2 (80%) (Table 1, 75 DAA, 15 g ai/ha) | Frequency 4/3 (90%) (Table 1, 75 DAA, 15 g ai/ha) | Frequency 4/4 (100%) (Table 1, 75 DAA, 15 g ai/ha) | Frequency 3/1 (30%) (Table 1, 75 DAA, 20 g ai/ha) | Frequency 4/1 (50%) (Table 1, 75 DAA, 20 g ai/ha) | Frequency 4/2 (80%) (Table 1, 75 DAA, 20 g ai/ha) | Frequency 4/3 (90%) (Table 1, 75 DAA, 20 g ai/ha) | Frequency 4/4 (100%) (Table 1, 75 DAA, 20 g ai/ha) | Frequency 3/1 (30%) (Table 1, 90 DAA, 2 g ai/ha) | Frequency 4/1 (50%) (Table 1, 90 DAA, 2 g ai/ha) | Frequency 4/2 (80%) (Table 1, 90 DAA, 2 g ai/ha) | Frequency 4/3 (90%) (Table 1, 90 DAA, 2 g ai/ha) | Frequency 4/4 (100%) (Table 1, 90 DAA, 2 g ai/ha) | Frequency 3/1 (30%) (Table 1, 90 DAA, 5 g ai/ha) | Frequency 4/1 (50%) (Table 1, 90 DAA, 5 g ai/ha) | Frequency 4/2 (80%) (Table 1, 90 DAA, 5 g ai/ha) | Frequency 4/3 (90%) (Table 1, 90 DAA, 5 g ai/ha) | Frequency 4/4 (100%) (Table 1, 90 DAA, 5 g ai/ha) | Frequency 4/1 (50%) (Table 1, 90 DAA, 10 g ai/ha) | Frequency 4/2 (80%) (Table 1, 90 DAA, 10 g ai/ha) | Frequency 4/3 (90%) (Table 1, 90 DAA, 10 g ai/ha) | Frequency 4/4 (100%) (Table 1, 90 DAA, 10 g ai/ha) | Frequency 3/1 (30%) (Table 1, 90 DAA, 15 g ai/ha) | Frequency 4/1 (50%) (Table 1, 90 DAA, 15 g ai/ha) | Frequency 4/2 (80%) (Table 1, 90 DAA, 15 g ai/ha) | Frequency 4/3 (90%) (Table 1, 90 DAA, 15 g ai/ha) | Frequency 4/4 (100%) (Table 1, 90 DAA, 15 g ai/ha) | Frequency 4/1 (50%) (Table 1, 90 DAA, 20 g ai/ha) | Frequency 4/2 (80%) (Table 1, 90 DAA, 20 g ai/ha) | Frequency 4/3 (90%) (Table 1, 90 DAA, 20 g ai/ha) | Frequency 4/4 (100%) (Table 1, 90 DAA, 20 g ai/ha) | Frequency 3/1 (30%) (Table 1, 120 DAA, 2 g ai/ha) | Frequency 4/1 (50%) (Table 1, 120 DAA, 2 g ai/ha) | Frequency 4/2 (80%) (Table 1, 120 DAA, 2 g ai/ha) | Frequency 4/3 (90%) (Table 1, 120 DAA, 2 g ai/ha) | Frequency 4/4 (100%) (Table 1, 120 DAA, 2 g ai/ha) | Frequency 3/1 (30%) (Table 1, 120 DAA, 5 g ai/ha) | Frequency 4/1 (50%) (Table 1, 120 DAA, 5 g ai/ha) | Frequency 4/2 (80%) (Table 1, 120 DAA, 5 g ai/ha) | Frequency 4/3 (90%) (Table 1, 120 DAA, 5 g ai/ha) | Frequency 4/4 (100%) (Table 1, 120 DAA, 5 g ai/ha) | Frequency 3/1 (30%) (Table 1, 120 DAA, 10 g ai/ha) | Frequency 4/1 (50%) (Table 1, 120 DAA, 10 g ai/ha) | Frequency 4/2 (80%) (Table 1, 120 DAA, 10 g ai/ha) | Frequency 4/3 (90%) (Table 1, 120 DAA, 10 g ai/ha) | Frequency 4/4 (100%) (Table 1, 120 DAA, 10 g ai/ha) | Frequency 3/1 (30%) (Table 1, 120 DAA, 15 g ai/ha) | Frequency 4/1 (50%) (Table 1, 120 DAA, 15 g ai/ha) | Frequency 4/2 (80%) (Table 1, 120 DAA, 15 g ai/ha) | Frequency 4/3 (90%) (Table 1, 120 DAA, 15 g ai/ha) | Frequency 4/4 (100%) (Table 1, 120 DAA, 15 g ai/ha)
